In patent US20140107109A1, “AMINO-DIHYDROTHIAZINE AND AMINO-DIOXIDO DIHYDROTHIAZINE COMPOUNDS AS BETA-SECRETASE ANTAGONISTS AND METHODS OF USE” (Amgen Inc., priority 2012, published 2014):
Like-named read-outs stand apart in the source and are kept apart here.

How the values were obtained:
Cathepsin D (Cat D) = target: T1, Cathepsin D (Cat D) (Homo sapiens, UniProt P07339); test: In vitro enzymatic Cathepsin D (Cat D) FRET assay; format: biochemical; settings: read-out: CatD IC50
T1 construct: Recombinant Cat D was expressed in CHO cells; made in house; host or cells: CHO cells
T1 sequence (P07339 65-412, species assumed): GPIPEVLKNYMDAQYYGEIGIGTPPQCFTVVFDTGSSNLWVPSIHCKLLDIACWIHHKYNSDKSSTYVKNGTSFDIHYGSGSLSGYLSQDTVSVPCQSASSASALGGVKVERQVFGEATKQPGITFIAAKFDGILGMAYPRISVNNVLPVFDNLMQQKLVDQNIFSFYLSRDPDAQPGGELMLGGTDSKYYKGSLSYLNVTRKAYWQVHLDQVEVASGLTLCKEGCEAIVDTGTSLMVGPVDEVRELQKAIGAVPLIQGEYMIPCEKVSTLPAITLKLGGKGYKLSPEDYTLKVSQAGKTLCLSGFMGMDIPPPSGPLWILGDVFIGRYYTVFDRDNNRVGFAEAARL
Method in brief: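 Recombinant Cat D expressed in CHO cells, used at 9 nM and pre-incubated one hour with serially diluted inhibitor in DMSO. Peptide substrate carries a fluorophore and quencher flanking the cleavage site; reaction stopped with Tris buffer raising pH to neutrality, then fluorescence read.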

[1] = target: Beta Secretase enzyme (BACE1) (Homo sapiens, UniProt P56817); test: In vitro enzymatic BACE FRET assay; format: biochemical; settings: read-out: BACE1 FRET assay IC50
Beta Secretase enzyme (BACE1), sequence (P56817 46-501): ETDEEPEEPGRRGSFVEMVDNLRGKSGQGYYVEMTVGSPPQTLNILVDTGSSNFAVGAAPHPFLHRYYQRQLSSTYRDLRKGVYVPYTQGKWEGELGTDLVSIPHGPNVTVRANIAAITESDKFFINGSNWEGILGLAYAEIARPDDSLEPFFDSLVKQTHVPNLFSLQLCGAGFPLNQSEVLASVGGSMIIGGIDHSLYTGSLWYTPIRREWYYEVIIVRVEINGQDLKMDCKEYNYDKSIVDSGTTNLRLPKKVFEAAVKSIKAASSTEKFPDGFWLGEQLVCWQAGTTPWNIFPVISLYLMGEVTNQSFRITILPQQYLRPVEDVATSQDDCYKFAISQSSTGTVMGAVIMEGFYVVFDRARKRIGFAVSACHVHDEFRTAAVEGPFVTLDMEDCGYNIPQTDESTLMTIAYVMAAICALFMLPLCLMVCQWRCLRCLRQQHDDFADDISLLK
Method in brief: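 BACE1 cleavage of a 50 nM fluorophore/quencher peptide FRET substrate ran for one hour in 0.05 M acetate pH 4.2, 10% DMSO, 100 uM genapol. Tris buffer raised pH to neutrality to stop the reaction before fluorescence was read (excitation 488 nm, […]).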

[2] = tested on: Aβ40 in conditioned medium of cells stably expressing Amyloid Precursor Protein (APP); test: In vitro BACE cell-based assay (HEK cell assay), Aβ40 sandwich ELISA; settings: Homo sapiens, HEK293
Method in brief: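 APP-stably expressing cells (40K/well, grown 24 h in DMEM/10% FBS) were treated 24 h with compounds in 10-point dose response starting at 100 μM or 10 μM, 0.1% DMSO final. Secreted Aβ40 was measured by sandwich ELISA (pAb40 capture, biotinylated 6E10 detection, europium time-resolved fluorescence); IC50 from percent inhibition.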

Compound	IC50 (Cathepsin D (Cat D)) [µM]	IC50 ([1]; average IC50, enzyme assay) [µM]	IC50 ([2]; average IC50, HEK cell assay) [µM]	IC50 [1] [µM]	further results
CC1(C)C(N)=N[C@](C)(c2cc(Nc3nccc4cc(Cl)cnc34)cnc2F)CS1(=O)=O [Example 223, N-(5-((3R)-5-amino-3,6,6-trimethyl-1,1-dioxido-3,6-dihydro-2H-1,4-thiazin-3-yl)-6-fluoro-3-pyridinyl)-3-chloro-1,7-naphthyridin-8-amine]	23.8	0.00082			IC50 ([2]; average IC50, cell assay): 0.0054 µM
CC1(C)C(N)=N[C@](C)(c2cc(Oc3ncccc3Cl)ccc2F)CS1(=O)=O [Example 258, (5R)-5-(5-((3-chloro-2-pyridinyl)oxy)-2-fluorophenyl)-2,2,5-trimethyl-5,6-dihydro-2H-1,4-thiazin-3-amine 1,1-dioxide]	207	0.0969			IC50 ([2]; average IC50, cell assay): 0.121 µM
Cc1cc(C)c(C#N)c(Oc2ccc(F)c([C@]3(C)CS(=O)(=O)C(C)(C)C(N)=N3)c2)n1 [Example 295, 2-(3-((3R)-5-amino-3,6,6-trimethyl-1,1-dioxido-3,6-dihydro-2H-1,4-thiazin-3-yl)-4-fluorophenoxy)-4,6-dimethyl-3-pyridinecarbonitrile]	1690	2.64	2.48		
Cc1cnc(C(=O)Nc2ccc(F)c([C@]3(C)CS(=O)(=O)C(C)(C)C(N)=N3)c2)c(C)n1 [Example 111, ®-N-(3-(5-amino-3,6,6-trimethyl-1,1-dioxido-3,6-dihydro-2H-1,4-thiazin-3-yl)-4-fluorophenyl)-3,5-dimethylpyrazine-2-carboxamide]	> 400			0.0182	IC50 [2]: 0.0244 µM
COc1ccnc(Oc2ccc(F)c([C@]3(C)CS(=O)(=O)C(C)(C)C(N)=N3)c2)n1 [Example 309, (5R)-5-(2-fluoro-5-((4-methoxy-2-pyrimidinyl)oxy)phenyl)-2,2,5-trimethyl-5,6-dihydro-2H-1,4-thiazin-3-amine 1,1-dioxide]	274	0.101	0.0751		
CC1(C)C(N)=N[C@](C)(c2cc(Nc3nccc4nc(C(F)(F)F)cnc34)ccc2F)CS1(=O)=O [Example 55, N-(3-((3R)-5-amino-3,6,6-trimethyl-1,1-dioxido-3,6-dihydro-2H-1,4-thiazin-3-yl)-4-fluorophenyl)-2-(trifluoromethyl)pyrido[3,4-b]pyrazin-5-amine]	> 133			0.0052	IC50 ([2]; Aβ40, 24 h incubation): 0.0346 µM
Cc1cccnc1Oc1ccc(F)c([C@]2(C)CS(=O)(=O)C(C)(C)C(N)=N2)c1 [Example 263, (5R)-5-(2-fluoro-5-((3-methyl-2-pyridinyl)oxy)phenyl)-2,2,5-trimethyl-5,6-dihydro-2H-1,4-thiazin-3-amine 1,1-dioxide]	555	0.65			IC50 ([2]; average IC50, cell assay): 0.624 µM
CC1(C)C(N)=N[C@](C)(c2cc(Nc3nccc4nc(O)cnc34)cc(F)c2F)CS1(=O)=O [Example 71, (R)-5-Amino-3-(2,3-difluoro-5-((2-hydroxypyrido[3,4-b]pyrazin-5-yl)amino)phenyl)-3,6,6-trimethyl-3,6-dihydro-2H-1,4-thiazine 1,1-dioxide]	45.2			0.0037	IC50 ([2]; Aβ40, 24 h incubation): 0.0474 µM
CC1(C)C(N)=N[C@](C)(c2cc(Oc3ncccc3C#N)ccc2F)CS1(=O)=O [Example 306, 2-(3-((3R)-5-amino-3,6,6-trimethyl-1,1-dioxido-3,6-dihydro-2H-1,4-thiazin-3-yl)-4-fluorophenoxy)-3-pyridinecarbonitrile]	218	0.256	0.241		
CC1(C)C(N)=N[C@](C)(c2cc(Sc3cccc4ccccc34)ccc2F)CS1(=O)=O [Example 79, (R)-5-Amino-3-(2-fluoro-5-(naphthalen-1-ylthio)phenyl)-3,6,6-trimethyl-3,6-dihydro-2H-1,4-thiazine 1,1-dioxide]	33.7			2.5	IC50 ([2]; Aβ40, 24 h incubation): 4.94 µM

Continued, in another order:

IC50 (Cathepsin D (Cat D)) [µM]	IC50 ([1]; average IC50, enzyme assay) [µM]	IC50 ([2]; average IC50, HEK cell assay) [µM]	IC50 [1] [µM]	Compound	further results
1450	0.031			CC1(C)C(N)=N[C@](C)(c2cc(Nc3nccc4cc(OCCF)cnc34)ccc2F)CS1(=O)=O [Example 421, N-(3-((3R)-5-amino-3,6,6-trimethyl-1,1-dioxido-3,6-dihydro-2H-1,4-thiazin-3-yl)-4-fluorophenyl)-3-(2-fluoroethoxy)-1,7-naphthyridin-8-amine]	IC50 ([2]; average IC50, cell assay): 0.0115 µM
> 400	0.00507	0.0137		Cc1c(C(=O)Nc2ccc(F)c([C@]3(CF)CS(=O)(=O)C4(CCC4)C(N)=N3)c2)nc2ccc(Cl)cn12 [Example 367, N-(3-((7S)-9-amino-7-(fluoromethyl)-5,5-dioxido-5-thia-8-azaspiro[3.5]non-8-en-7-yl)-4-fluorophenyl)-6-chloro-3-methylimidazo[1,2-a]pyridine-2-carboxamide]	
104	0.00068			CC1(C)C(N)=N[C@](C)(c2cc(Nc3nncc4cc(Br)cnc34)ccc2F)CS1(=O)=O [Example 451, N-(3-((3R)-5-amino-3,6,6-trimethyl-1,1-dioxido-3,6-dihydro-2H-1,4-thiazin-3-yl)-4-fluorophenyl)-3-bromopyrido[2,3-d]pyridazin-8-amine]	IC50 ([2]; average IC50, cell assay): 0.0006 µM
182			0.00087	Cc1cc(Cl)cnc1C(=O)Nc1ccc(F)c([C@@]2(C)N=C(N)C3(CC3)S(=O)(=O)[C@@H]2F)c1 [Example 204, N-(3-((5S,6R)-8-amino-5-fluoro-6-methyl-4,4-dioxido-4-thia-7-azaspiro[2.5]oct-7-en-6-yl)-4-fluorophenyl)-5-chloro-3-methylpicolinamide]	IC50 [2]: 0.0027 µM
9.4	0.00599	0.0024		Cc1cc(OC(F)F)cnc1C(=O)Nc1ccc(F)c([C@@]2(C)N=C(N)C(C)(C)S(=O)(=O)C23CC3)c1 [Example 341, N-(3-((8R)-6-amino-5,5,8-trimethyl-4,4-dioxido-4-thia-7-azaspiro[2.5]oct-6-en-8-yl)-4-fluorophenyl)-5-(difluoromethoxy)-3-methyl-2-pyridinecarboxamide]	
46.8				Cc1cc(OC(F)F)cnc1C(=O)Nc1ccc(F)c([C@]2(CF)CS(=O)(=O)C3(CC3)C(N)=N2)c1 [Example 217, N-(3-((6S)-8-amino-6-(fluoromethyl)-4,4-dioxido-4-thia-7-azaspiro[2.5]oct-7-en-6-yl)-4-fluorophenyl)-5-(difluoromethoxy)-3-methyl-2-pyridinecarboxamide]	IC50 ([1]; average IC50): 0.0012 µM; IC50 ([2]; average IC50, HEK cells): 0.0061 µM
97.6			0.104	COc1ccc2nc(C(=O)Nc3ccc(F)c([C@]4(CF)CS(=O)(=O)C(C)(C)C(N)=N4)c3)c(C)n2c1 [Example 392, N-(3-((3S)-5-amino-3-(fluoromethyl)-6,6-dimethyl-1,1-dioxido-3,6-dihydro-2H-1,4-thiazin-3-yl)-4-fluorophenyl)-6-methoxy-3-methylimidazo[1,2-a]pyridine-2-carboxamide]	IC50 [2]: 0.823 µM
105	0.0022	0.00521		Cc1cc(Cl)cnc1C(=O)Nc1cnc(F)c([C@]2(C)CS(=O)(=O)C3(CCC3)C(N)=N2)c1 [Example 359, N-(5-((7R)-9-amino-7-methyl-5,5-dioxido-5-thia-8-azaspiro[3.5]non-8-en-7-yl)-6-fluoro-3-pyridinyl)-5-chloro-3-methyl-2-pyridinecarboxamide]	
